Values joined by “and” are separate entries in the source; they are usually repeats but may differ in a detail not shown here. Equal entries are not always repeated. Inconclusive results and toxic doses are left out.
Tested on: L1210 leukemia ip in BDF1 mice, survival T/C
Assay: NCI In Vivo Anticancer Drug Screen. Data for tumor model L1210 Leukemia (intraperitoneal) in B6D2F1 (BDF1) mice
Settings: higher = longer survival
How it was run: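 Transplanted-tumor mice were given test agent; controls received vehicle only. Survival readings from the two groups were divided (treated over control).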

[1] = endpoint: mean survival time, dose: 200.0 mg/kg/injection, schedule: Q01DX001 (ip), vehicle: saline
[2] = endpoint: mean survival time, dose: 400.0 mg/kg/injection, schedule: Q01DX001 (ip), vehicle: saline
[3] = endpoint: mean survival time, dose: 100.0 mg/kg/injection, schedule: Q01DX001 (ip), vehicle: saline
[4] = endpoint: mean survival time, dose: 100.0 mg/kg/injection, schedule: Q04DX002 (ip), vehicle: saline
[5] = endpoint: mean survival time, dose: 100.0 mg/kg/injection, schedule: Q01DX001 (ip), vehicle: carboxymethylcellulose (CMC)
[6] = endpoint: mean survival time, dose: 200.0 mg/kg/injection, schedule: Q01DX001 (ip), vehicle: carboxymethylcellulose (CMC)
[7] = endpoint: mean survival time, dose: 400.0 mg/kg/injection, schedule: Q01DX001 (ip), vehicle: carboxymethylcellulose (CMC)
[8] = endpoint: mean survival time, dose: 100.0 mg/kg/injection, schedule: Q04DX003 (ip), vehicle: Klucel (hydroxypropylcellulose) (HPC)
[9] = endpoint: mean survival time, dose: 200.0 mg/kg/injection, schedule: Q04DX003 (ip), vehicle: Klucel (hydroxypropylcellulose) (HPC)
[10] = endpoint: mean survival time, dose: 100.0 mg/kg/injection, schedule: Q01DX009 (ip), vehicle: Klucel (hydroxypropylcellulose) (HPC)
[11] = endpoint: mean survival time, dose: 200.0 mg/kg/injection, schedule: Q01DX009 (ip), vehicle: Klucel (hydroxypropylcellulose) (HPC)
[12] = endpoint: mean survival time, dose: 100.0 mg/kg/injection, schedule: Q01DX009 (ip), vehicle: saline with Tween-80
[13] = endpoint: mean survival time, dose: 100.0 mg/kg/injection, schedule: Q04DX003 (ip), vehicle: saline with Tween-80
[14] = endpoint: mean survival time, dose: 200.0 mg/kg/injection, schedule: Q04DX003 (ip), vehicle: saline with Tween-80
[15] = endpoint: mean survival time, dose: 100.0 mg/kg/injection, schedule: Q04DX002 (ip), vehicle: Klucel (hydroxypropylcellulose) (HPC)
[16] = endpoint: mean survival time, dose: 200.0 mg/kg/injection, schedule: Q04DX002 (ip), vehicle: Klucel (hydroxypropylcellulose) (HPC)
[17] = endpoint: mean survival time, dose: 400.0 mg/kg/injection, schedule: Q04DX002 (ip), vehicle: Klucel (hydroxypropylcellulose) (HPC)
[18] = endpoint: mean survival time, dose: 100.0 mg/kg/injection, schedule: Q01DX001 (ip), vehicle: Klucel (hydroxypropylcellulose) (HPC)
[19] = endpoint: mean survival time, dose: 200.0 mg/kg/injection, schedule: Q01DX001 (ip), vehicle: Klucel (hydroxypropylcellulose) (HPC)
[20] = endpoint: mean survival time, dose: 50.0 mg/kg/injection, schedule: Q01DX009 (ip), vehicle: saline with Tween-80
[21] = endpoint: mean survival time, dose: 200.0 mg/kg/injection, schedule: Q04DX002 (ip), vehicle: saline

CCOC(=O)c1c[nH]c2oc(/C=N/N3CC(CN4CCOCC4)OC3=O)cc2c1=O (centres undefined)
T/C (endpoint: median survival time, dose: 25.0 mg/kg/injection, schedule: Q01DX009 (ip), vehicle: acid diluted with saline): 110 % of control
T/C (endpoint: median survival time, dose: 50.0 mg/kg/injection, schedule: Q01DX009 (ip), vehicle: acid diluted with saline): 111 % of control
T/C (endpoint: median survival time, dose: 200.0 mg/kg/injection, schedule: Q01DX009 (ip), vehicle: acid diluted with saline): 152 % of control

O=C(Nc1ccc(Cl)c(Cl)c1)OCn1ncc2ccc([N+](=O)[O-])cc21
T/C [1]: 96 % of control
T/C [2]: 100 % of control

[O-][n+]1ccccc1/C=C\c1ccccc1
T/C [3]: 92 % of control
T/C [1]: 94 % of control

CC#CC(=O)O
T/C (endpoint: mean survival time, dose: 6.25 mg/kg/injection, schedule: Q01DX009 (ip), vehicle: saline): 106 % of control
T/C (endpoint: mean survival time, dose: 12.5 mg/kg/injection, schedule: Q01DX009 (ip), vehicle: saline): 106 % of control
T/C (endpoint: mean survival time, dose: 25.0 mg/kg/injection, schedule: Q01DX005 (ip), vehicle: saline): 104 % of control
T/C (endpoint: mean survival time, dose: 25.0 mg/kg/injection, schedule: Q01DX009 (ip), vehicle: saline): 98 % of control and 100 % of control
T/C (endpoint: mean survival time, dose: 25.0 mg/kg/injection, schedule: Q04DX002 (ip), vehicle: saline): 95 % of control
T/C (endpoint: mean survival time, dose: 50.0 mg/kg/injection, schedule: Q01DX005 (ip), vehicle: saline): 97 % of control
T/C (endpoint: mean survival time, dose: 50.0 mg/kg/injection, schedule: Q04DX002 (ip), vehicle: saline): 102 % of control
T/C (endpoint: mean survival time, dose: 100.0 mg/kg/injection, schedule: Q01DX005 (ip), vehicle: saline): 93 % of control
T/C [4]: 104 % of control

O=C1C2C3C=CC(C3)C2C(=O)C2C3C=CC(C3)C12 (centres undefined)
T/C (endpoint: mean survival time, dose: 50.0 mg/kg/injection, schedule: Q01DX001 (ip), vehicle: carboxymethylcellulose (CMC)): 103 % of control
T/C [5]: 93 % of control
T/C [6]: 100 % of control
T/C [7]: 112 % of control

CC1(C)OCC(C2OC3OC(C)(C)OC3C2OS(C)(=O)=O)O1 (centres undefined)
T/C [5]: 101 % of control
T/C [6]: 103 % of control
T/C [7]: 97 % of control

C/C=C\C(O)(C(=O)OC)c1ccccc1 (centres undefined)
T/C (endpoint: mean survival time, dose: 100.0 mg/kg/injection, schedule: Q01DX001 (ip), vehicle: other): 105 % of control
T/C [3]: 97 % of control
T/C (endpoint: mean survival time, dose: 200.0 mg/kg/injection, schedule: Q01DX001 (ip), vehicle: other): 107 % of control
T/C [1]: 92 % of control
T/C (endpoint: mean survival time, dose: 400.0 mg/kg/injection, schedule: Q01DX001 (ip), vehicle: other): 107 % of control
T/C [2]: 92 % of control

CC(C)(C)S(=O)(=O)c1nc2ccccc2s1
T/C [8]: 93 % of control
T/C [9]: 107 % of control
T/C (endpoint: mean survival time, dose: 400.0 mg/kg/injection, schedule: Q04DX003 (ip), vehicle: Klucel (hydroxypropylcellulose) (HPC)): 90 % of control

CC(C)NC(=O)Oc1ccc(Br)cc1Br
T/C [10]: 109 % of control
T/C [11]: 104 % of control
T/C (endpoint: mean survival time, dose: 400.0 mg/kg/injection, schedule: Q01DX009 (ip), vehicle: Klucel (hydroxypropylcellulose) (HPC)): 113 % of control

CN(N=O)C(=O)Nc1cccc2cccnc12
T/C (endpoint: mean survival time, dose: 6.25 mg/kg/injection, schedule: Q01DX Z (ip), vehicle: carboxymethylcellulose (CMC)): 101 % of control
T/C (endpoint: mean survival time, dose: 12.5 mg/kg/injection, schedule: Q01DX Z (ip), vehicle: carboxymethylcellulose (CMC)): 106 % of control
T/C (endpoint: mean survival time, dose: 25.0 mg/kg/injection, schedule: Q01DX Z (ip), vehicle: carboxymethylcellulose (CMC)): 124 % of control

C=CCC(CC)C(=O)Cl (centres undefined)
T/C [12]: 104 % of control
T/C [13]: 94 % of control
T/C (endpoint: mean survival time, dose: 200.0 mg/kg/injection, schedule: Q01DX009 (ip), vehicle: saline with Tween-80): 91 % of control
T/C [14]: 94 % of control
T/C (endpoint: mean survival time, dose: 400.0 mg/kg/injection, schedule: Q01DX009 (ip), vehicle: saline with Tween-80): 91 % of control
T/C (endpoint: mean survival time, dose: 400.0 mg/kg/injection, schedule: Q04DX003 (ip), vehicle: saline with Tween-80): 102 % of control

O=C(O)c1cccc2c1C(Br)C(Br)c1ccccc1-2 (centres undefined)
T/C (endpoint: mean survival time, dose: 100.0 mg/kg/injection, schedule: Q04DX003 (ip), vehicle: saline): 94 % of control
T/C (endpoint: mean survival time, dose: 200.0 mg/kg/injection, schedule: Q04DX003 (ip), vehicle: saline): 94 % of control
T/C (endpoint: mean survival time, dose: 400.0 mg/kg/injection, schedule: Q04DX003 (ip), vehicle: saline): 92 % of control

O=C(NNC(=O)c1ccccc1)c1ccccc1
T/C [15]: 101 % of control
T/C [16]: 101 % of control
T/C [17]: 101 % of control

CC(C)(C)C(=O)Cn1nnnc1C(=O)C(C)(C)C
T/C (endpoint: mean survival time, dose: 50.0 mg/kg/injection, schedule: Q04DX003 (ip), vehicle: Klucel (hydroxypropylcellulose) (HPC)): 105 % of control
T/C [18]: 105 % of control
T/C [8]: 103 % of control
T/C [19]: 108 % of control
T/C [9]: 100 % of control

CC1=CC2=C(C=O)C(=O)[C@](C)(O)[C@@H](O)C2=CO1
T/C [20]: 109 % of control
T/C [13]: 93 % of control
T/C [14]: 117 % of control

O=[N+]([O-])c1ccc2c(c1)-c1ccccc1C2Cl (centres undefined)
T/C (endpoint: mean survival time, dose: 100.0 mg/kg/injection, schedule: Q01DX005 (ip), vehicle: Klucel (hydroxypropylcellulose) (HPC)): 94 % of control
T/C [15]: 111 % of control
T/C (endpoint: mean survival time, dose: 200.0 mg/kg/injection, schedule: Q01DX005 (ip), vehicle: Klucel (hydroxypropylcellulose) (HPC)): 91 % of control
T/C [16]: 101 % of control
T/C (endpoint: mean survival time, dose: 400.0 mg/kg/injection, schedule: Q01DX005 (ip), vehicle: Klucel (hydroxypropylcellulose) (HPC)): 88 % of control
T/C [17]: 96 % of control

NC(=O)c1ccccc1NC(=O)CCCOc1ccccc1
T/C [18]: 100 % of control
T/C [8]: 94 % of control
T/C [19]: 93 % of control
T/C [9]: 97 % of control
T/C (endpoint: mean survival time, dose: 400.0 mg/kg/injection, schedule: Q01DX001 (ip), vehicle: Klucel (hydroxypropylcellulose) (HPC)): 96 % of control

C=C1CCC2C(O)CCN2C1=O (centres undefined)
T/C (endpoint: mean survival time, dose: 25.0 mg/kg/injection, schedule: Q01DX001 (ip), vehicle: saline): 103 % of control
T/C (endpoint: mean survival time, dose: 50.0 mg/kg/injection, schedule: Q01DX001 (ip), vehicle: saline): 106 % of control
T/C [3]: 109 % of control
T/C [1]: 104 % of control

O=S(=O)(c1ccccc1)N1CN(S(=O)(=O)c2ccccc2)CN(S(=O)(=O)c2ccccc2)C1
T/C [15]: 93 % of control
T/C [16]: 100 % of control
T/C [17]: 96 % of control

NC(=S)Nc1ccc(C23CCC(CC2)CC3)cc1
T/C (endpoint: mean survival time, dose: 50.0 mg/kg/injection, schedule: Q01DX009 (ip), vehicle: saline): 105 % of control
T/C (endpoint: mean survival time, dose: 100.0 mg/kg/injection, schedule: Q01DX009 (ip), vehicle: saline): 105 % of control
T/C (endpoint: mean survival time, dose: 200.0 mg/kg/injection, schedule: Q01DX009 (ip), vehicle: saline): 102 % of control

CC1CNC(=O)C(=O)N1 (centres undefined)
T/C [4]: 98 % of control
T/C [21]: 102 % of control
T/C (endpoint: mean survival time, dose: 400.0 mg/kg/injection, schedule: Q04DX002 (ip), vehicle: saline): 94 % of control

O=C(O)/C=C(/C(=O)O)c1cccn1Cc1ccccc1
T/C (endpoint: mean survival time, dose: 25.0 mg/kg/injection, schedule: Q01DX009 (ip), vehicle: saline with Tween-80): 110 % of control
T/C [20]: 100 % of control
T/C [12]: 102 % of control

NCc1c(Cl)cccc1[N+](=O)[O-]
T/C (endpoint: mean survival time, dose: 50.0 mg/kg/injection, schedule: Q01DX009 (ip), vehicle: Klucel (hydroxypropylcellulose) (HPC)): 96 % of control and 108 % of control
T/C [10]: 96 % of control and 99 % of control and 101 % of control
T/C [15]: 105 % of control
T/C [4]: 102 % of control
T/C [11]: 94 % of control and 104 % of control and 110 % of control
T/C [16]: 100 % of control
T/C [21]: 94 % of control

Cc1ccc2c(ccc(/C=C\c3cc(C)c4cccnc4c3O)[n+]2C)c1
T/C [5]: 114 % of control

CCS(=O)(=O)c1ccc(NC(=O)OC2CCC3(C)C(=CCC4C3CCC3(C)C(C(C)CCCC(C)C)CCC43)C2)cc1 (centres undefined)
T/C (endpoint: mean survival time, dose: 100.0 mg/kg/injection, schedule: Q01DX001 (sc), vehicle: steriod suspending solution): 97 % of control
T/C (endpoint: mean survival time, dose: 200.0 mg/kg/injection, schedule: Q01DX001 (sc), vehicle: steriod suspending solution): 100 % of control
T/C (endpoint: mean survival time, dose: 400.0 mg/kg/injection, schedule: Q01DX001 (sc), vehicle: steriod suspending solution): 94 % of control

BrCC12CCC1(CBr)COC2 (centres undefined)
T/C [3]: 99 % of control
T/C [1]: 103 % of control
T/C [2]: 101 % of control
